Data on 13 compounds can be found in PubChem BioAssay (NCI).

Among the test systems are EKVX NSCLC; MALME-3M melanoma; SK-MEL-5 melanoma; SN12C renal; UO-31 renal; BT-549 breast; NCI/ADR-RES ovarian; OVCAR-4 ovarian; OVCAR-5 ovarian; MCF7 breast.
What all share (test): NCI anticancer screen, dose series, 48 h

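Where inhibition never reached the appropriate level, the endpoint shown equals the highest concentration tested. Otherwise, values were interpolated linearly from a five-concentration, 48-hour dose response in 96-well plates. GI50 = concentration required for 50% inhibition of growth. TGI: total growth inhibition.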

Turning to `[N-]=[N+]=NC(c1cn(C2CC(O)C(CO)O2)c(=O)[nH]c1=O)C(Cl)Br` (configuration not stated), the TGI in the test with EKVX NSCLC, with MALME-3M melanoma, with SK-MEL-5 melanoma, with SN12C renal and in the test with UO-31 renal was greater than 100 µM in each case.
As for `COc1ccc(/C=C(/c2ccccc2)[N+](=O)[O-])c(OC)c1`, the GI50 is 1.48 µM in the test on BT-549 breast; 1.73 µM with EKVX NSCLC; 1.58 µM in the test with MALME-3M melanoma; 1.72 µM in the test with NCI/ADR-RES ovarian; 1.55 µM in the test with OVCAR-4 ovarian; 1.92 µM with OVCAR-5 ovarian. Moreover, the results for the GI50 in the test on SK-MEL-5 melanoma, in the test with SN12C renal and in the test with UO-31 renal were 1.79 µM, 1.47 µM and 1.23 µM, respectively. For the same compound, the TGI is 2.89 µM with BT-549 breast; 3.98 µM in the test on EKVX NSCLC; 3.3 µM in the test with MALME-3M melanoma; 5.63 µM in the test with NCI/ADR-RES ovarian; 2.92 µM in the test on OVCAR-4 ovarian; 3.74 µM with OVCAR-5 ovarian. Besides, the TGI in the test on SK-MEL-5 melanoma was found to be 3.26 µM; in the test with SN12C renal, 3 µM; in the test on UO-31 renal, 2.47 µM.
Take `O=C1C2C(C(=O)N1c1ccccc1)C1c3ccccc3C2C2C(=O)N(c3ccccc3)C(=O)C21` (configuration not stated): the TGI in the test with EKVX NSCLC was greater than 100 µM; in the test with MALME-3M melanoma, 67.8 µM; with OVCAR-4 ovarian, greater than 100 µM; in the test on OVCAR-5 ovarian it was 99.5 µM; in the test with SK-MEL-5 melanoma it was greater than 100 µM; with SN12C renal, greater than 100 µM. Besides, the TGI in the test with UO-31 renal was greater than 100 µM.
With `Cc1cc(N(CCC#N)S(=O)(=O)c2ccccc2)ccc1/C=C1\N=C(c2ccc(Cl)cc2)OC1=O`, the TGI in the test on EKVX NSCLC, in the test on MALME-3M melanoma, in the test on OVCAR-4 ovarian, in the test with OVCAR-5 ovarian, with SK-MEL-5 melanoma and with SN12C renal was greater than 100 µM throughout. The TGI in the test with UO-31 renal was greater than 100 µM.
As to `C=C(C)[C@@H]1CCC=C2CC[C@]3(C)[C@H](CC[C@@H]4[C@@]5(C)CCCNC(C)(C)[C@@H]5CC[C@]43C)[C@H]21`, the GI50 was 4.5 µM in the test with BT-549 breast; 2.17 µM in the test with EKVX NSCLC; 1.77 µM in the test on MALME-3M melanoma; 2.01 µM with OVCAR-5 ovarian; 3.58 µM with SK-MEL-5 melanoma; 1.79 µM in the test on SN12C renal. Moreover, in the test with UO-31 renal, the GI50 was 1.53 µM. The TGI was determined as 20.7 µM in the test with BT-549 breast; 5.6 µM in the test with EKVX NSCLC; 3.74 µM in the test on MALME-3M melanoma; 4.46 µM in the test with OVCAR-5 ovarian; 14 µM in the test on SK-MEL-5 melanoma; 3.48 µM in the test with SN12C renal. The same compound came in with a TGI in the test with UO-31 renal of 2.99 µM.
Take `CCCn1c2c(c3c(O)cccc31)C(=O)c1ccccc1-2`: the GI50 in the test with EKVX NSCLC is 15.9 µM; with MALME-3M melanoma, 64.6 µM; with MCF7 breast it was 58 µM; in the test on NCI/ADR-RES ovarian it was 13.4 µM; with OVCAR-4 ovarian it was 0.0961 µM; in the test with OVCAR-5 ovarian, 3.72 µM. In addition, the results for the GI50 in the test with SK-MEL-5 melanoma, with SN12C renal and with UO-31 renal were 11.9 µM, 21.9 µM and 22.8 µM, respectively. Moreover, the TGI in the test on EKVX NSCLC was greater than 100 µM; in the test with MALME-3M melanoma, greater than 100 µM; in the test with MCF7 breast it was greater than 100 µM; with NCI/ADR-RES ovarian, 81.6 µM; with OVCAR-4 ovarian it was 6.12 µM; in the test with OVCAR-5 ovarian, greater than 100 µM. For the same compound, the TGI was greater than 100 µM in the test with SK-MEL-5 melanoma, 98.5 µM in the test on SN12C renal and greater than 100 µM with UO-31 renal.
Take `COC1C(OC(=O)c2ccc(C)[nH]2)C(O)C(Oc2ccc3c(O)c(NC(=O)c4c[nH]c(C(=O)Nc5c(O)c6ccc(OC7OC(C)(C)C(OC)C(OC(=O)c8ccc(C)[nH]8)C7O)c(C)c6oc5=O)c4C)c(=O)oc3c2C)OC1(C)C` (configuration not stated): the TGI in the test with EKVX NSCLC worked out at 19.2 µM; in the test with MALME-3M melanoma, 5.02 µM; in the test with OVCAR-4 ovarian, 6.82 µM; with OVCAR-5 ovarian, 9.96 µM; with SK-MEL-5 melanoma, 6.51 µM; in the test on SN12C renal it was 7.16 µM. In addition, the TGI with UO-31 renal turned out to be 2.94 µM.
For `O=C(/C=C(\O)C(=O)O)/C=C(\O)c1ccccc1`, the GI50 is greater than 1 µM in the test with EKVX NSCLC; greater than 100 µM with MALME-3M melanoma; greater than 1 µM in the test on OVCAR-4 ovarian; greater than 100 µM in the test on OVCAR-5 ovarian; greater than 1 µM in the test on SK-MEL-5 melanoma; greater than 1 µM in the test with SN12C renal. The GI50 in the test on UO-31 renal was greater than 1 µM. For the same compound, the TGI is greater than 100 µM in the test with EKVX NSCLC; greater than 100 µM with MALME-3M melanoma; greater than 100 µM with OVCAR-4 ovarian; greater than 100 µM in the test on OVCAR-5 ovarian; greater than 1 µM with SK-MEL-5 melanoma; greater than 100 µM with SN12C renal. Besides, in the test on UO-31 renal, the TGI is greater than 1 µM.
In the case of `C=CC(=O)N1C/C(=C\c2ccc(Cl)c(Cl)c2)C(=O)/C(=C/c2ccc(Cl)c(Cl)c2)C1`, the TGI with OVCAR-4 ovarian came out at 0.122 µM; with OVCAR-5 ovarian, 1.02 µM; in the test with SK-MEL-5 melanoma, 1.74 µM; in the test on SN12C renal, 0.302 µM; with UO-31 renal, 0.528 µM.
As for `O=c1cc(-c2ccccn2)[nH]c2cccc(F)c12`, the TGI with EKVX NSCLC, in the test with OVCAR-4 ovarian, with OVCAR-5 ovarian, in the test on SK-MEL-5 melanoma, in the test with SN12C renal and in the test with UO-31 renal was greater than 100 µM in each case.
With `COc1cc(CNc2nc3c(N)cc(C(F)(F)F)cc3nc2-c2ccccc2)cc(OC)c1OC`, the TGI in the test with EKVX NSCLC is 25.6 µM; in the test with MALME-3M melanoma, greater than 100 µM; with OVCAR-4 ovarian, greater than 100 µM; in the test with OVCAR-5 ovarian, greater than 100 µM; in the test on SK-MEL-5 melanoma, greater than 100 µM; in the test on SN12C renal it was greater than 100 µM. For the same compound, the TGI in the test on UO-31 renal amounted to 85.5 µM.
For `CCO/C=C1\N=C(c2ccc(Cl)c(Cl)c2)OC1=O`, the TGI with EKVX NSCLC, in the test on MALME-3M melanoma, in the test on OVCAR-4 ovarian, in the test on OVCAR-5 ovarian, with SK-MEL-5 melanoma and with SN12C renal was greater than 100 µM in each case. Further, in the test on UO-31 renal, the TGI is greater than 100 µM.
In the case of `Cc1cc2c(c(C(N)=O)c1C)-c1cccc(F)c1C2=O`, the TGI in the test on EKVX NSCLC, with MALME-3M melanoma, with OVCAR-4 ovarian, in the test with OVCAR-5 ovarian, in the test on SK-MEL-5 melanoma and in the test with SN12C renal was greater than 100 µM each time. This compound came in with a TGI in the test on UO-31 renal greater than 100 µM.
